Measured values reported in ChEMBL document CHEMBL5625205, “3-Methoxy-2-phenylimidazo[1,2-b]pyridazines highly active against Mycobacterium tuberculosis and Mycobacterium marinum” (Eur J Med Chem, 2023).
Converted amounts (≈) assume the structure as drawn. The source made the active and inactive calls. No cut-off for these calls is given here.

Tests used:
[1] = Metabolic stability in mouse liver microsomes assessed as intrinsic clearance incubated for 60 mins in presence of NADPH; assay type: ADME, Microsome; conditions: read-out: CLH
[2] = tested on: Mycobacterium tuberculosis; assay: Antimycobacterial activity against Mycobacterium tuberculosis H37Ra infected in mouse assessed as reduction in relative light unit in lung at 300 mg/kg,po administrated once daily for 5 days; assay type: functional, organism-based; conditions: time 5.0 day
[3] = Metabolic stability in mouse liver microsomes assessed as half life incubated for 60 mins in presence of NADPH; assay type: ADME, Microsome
[4] = Kinetic solubility of compound in DMSO at pH 2 incubated for 30 mins by laser nephelometry; assay type: physicochemical; conditions: read-out: Kinetic_solubility
[5] = Octanol-water distribution coefficient, logD of the compound at pH 7.4 by HPLC analysis; assay type: physicochemical
[6] = tested on: A549; assay: Cytotoxicity against human A549 cells incubated for 48 hrs by MTT assay; assay type: functional, cell-based; conditions: A549, 48 h
[7] = Kinetic solubility of compound in DMSO at pH 6.5 incubated for 30 mins by laser nephelometry; assay type: physicochemical; conditions: read-out: Kinetic_solubility
[8] = tested on: Mycobacterium marinum; assay: Antimycobacterial activity against Mycobacterium marinum assessed as inhibition of bacterial growth measured for 5 days by luminometer; assay type: functional; conditions: 120 h, time 5 day
[9] = tested on: Mycobacterium tuberculosis; assay: Antimycobacterial activity against Mycobacterium tuberculosis H37Ra assessed as inhibition of bacterial growth measured for 5 days by luminometer; assay type: functional; conditions: 120 h, time 5 day

Compound: COc1cccc(CSc2ccc3nc(-c4ccccc4)c(OC)n3n2)c1
- microsomal CLint [1]: > 866 µL/min/mg
- Activity [2]: inactive
- half-life [3]: < 2 min
- solubility kinetic at 0.5 h [4]: 3.1 µg/mL (≈ 8.21 µM)
- logD [5]: 4.8
- IC50 [6]: > 260 µM
- solubility kinetic at 0.5 h [7]: < 1.6 µg/mL
- MIC90 [8]: 2.65 µM (≈ 1 µg/mL)
- MIC90 [9]: ≤ 1.66 µM
